One test in a line: Inhibition of ABTS Assay. The conditions noted are these: 10 ul of 10 mg/ml in 990 ul ABTS reagent; 2 minutes; 734 nm. The test is classed as biochemical.
The nature of test [1]: Inhibition of Pyrogallol Red Bleaching by Hypochlorous Acid. In kind it is biochemical. The conditions noted are these: 10 mg/ml; 125 uM HOCL; pH 7.4, 37 deg. C.; 542 nm. Here is the method:
Pyrogallol Red was dissolved in 100 mM buffer at 37 deg. C., pH 7.4, after which 125 uM HOCL was added and incubated with 10 mg/ml ascorbic acid and other select herbal extracts including two batches of Formulation B. The absorbance values of the mixtures in the presence and absence of the antioxidant were recorded by UV visible spectrophotometer at 542 nm.

In test [2] the test system is oxidized DNA base products. Put plainly: Evaluation of DNA damage in blood DNA by GC/MS (Example 5). In kind it is in vivo, Wistar rats and SHR. The conditions noted are these: Stroke + treatment, doses of Table 9; mean ± S.D.; unit not given in Table 11 (Table 10: nmol/mg DNA). Here is the method: 60 Wistar rats and 60 SHR were divided into six treatment groups separately (excluding the vehicle group). The single blinded experiment was conducted with Formulation B and other drugs being administrated once daily orally (see Table 9). After a week treatment, Wistar rats underwent a MCAO procedure to induce stroke. Treatment was continued for another week after surgery before the rats were sacrificed by decapitation. DNA extraction and DNA base damage analysis was then performed. DNA was extracted from blood samples collected from different treatment groups of Wistar rats and SHR using the phenol-chloroform method. The DNA samples were then analyzed by GC/MS.

The test system of test [3] is BcL-xS. Put plainly: RT-PCR gene expression in left cortex after MCAO: BcL-xS (Example 6). The test is classed as in vivo, Wistar rats. The note with it: stroke operated, doses of Table 12; compared with stroke operated vehicle group (p<0.05). The text has this: (§1) The brains were collected for further gene expression studies. The cerebral left cortexes containing infarct area were separated.

In another test the test system is AT2 receptor. The experiment in a line: RT-PCR gene expression in left cortex after MCAO: AT2 (Example 6). The note with it: stroke operated groups, doses of Table 12; compared with stroke operated vehicle group (p<0.05). In kind it is in vivo, Wistar rats.
From the text: as §1

A further test has as its system Fas. Put plainly: RT-PCR gene expression in left cortex after MCAO: Fas (Example 6). In kind it is in vivo, Wistar rats. The note with it: stroke-operated group, doses of Table 12; compared with stroke operated vehicle group.
From the text: as §1

The test system of another test is Bax. The experiment in a line: RT-PCR gene expression in left cortex after MCAO: Bax (Example 6). The test is classed as in vivo, Wistar rats. The conditions noted are these: stroke-operated group, doses of Table 12; compared with stroke operated vehicle group (p<0.05).
From the text: as §1

In test [4] the test system is BcL-xL. The experiment in a line: RT-PCR gene expression in left cortex after MCAO: BcL-xL (Example 6). The note with it: stroke operated, doses of Table 12. The test is classed as in vivo, Wistar rats.
From the text: as §1

The subject of test [5] is apoptosis-induced nuclear DNA fragmentation in cerebral cortex. The experiment in a line: Apoptosis assay, TUNEL staining, SHR (Example 7). The note with it: doses of Table 14. The test is classed as in vivo.
From the text: TUNEL staining was used for detection of apoptosis-induced nuclear DNA fragmentation via fluorescence microscopy. Apoptotic cells were identified by using TUNEL staining.
Test [6] concerns spontaneous hypertension rats (SHR) with stroke induced middle cerebral artery occlusion (MCAO). The experiment in a line: Chronic MCAO stroke study, SHR (Example 7). The conditions noted are these: Braintone (500), Ginkgo 20, Aspirin 10, Losartan 1 mg/kg/day, means +/- SD, scale 0 to 5. In kind it is in vivo.
In test [7] the test system is oxidized DNA base products. Put plainly: DNA damage, oxidized DNA base products by GC/MS, Wistar (Example 7). The conditions noted are these: stroke-induced, Aspirin 10, Losartan 1 mg/kg/day. The test is classed as in vivo, Wistar rats.
In test [8] the test system is apoptosis-induced nuclear DNA fragmentation in cerebral cortex. The experiment in a line: Apoptosis assay, TUNEL staining, Wistar (Example 7). The test is classed as in vivo, Wistar rats. The conditions noted are these: after 1 month of MCAO, doses of Table 14.
From the text: TUNEL staining was used for detection of apoptosis-induced nuclear DNA fragmentation via fluorescence microscopy.
Apoptotic cells were identified by using TUNEL staining.
The subject of test [9] is Wistar rats with stroke induced middle cerebral artery occlusion (MCAO). Put plainly: Chronic MCAO stroke study, Wistar (Example 7). In kind it is in vivo. The conditions noted are these: Braintone 500 mg/kg, Ginkgo 20, Aspirin 10, Losartan 1 mg/kg/day, means +/- SD, scale 0 to 5. How it is done: (§2) 96 Wistar rats and 96 SHR, weighing 250-300 g, were randomly divided into eight treatment groups respectively (see Table 14), Remembrance (Formulation A) and other comparative drugs were dissolved in distilled water and administrated orally once daily for two months (Table 14: dosage of administration).
Oral administration of Remembrance/other treatments (2 months)→MACO→Continue the corresponding treatment after MACO (1 month)→Measurements
The differentiation of […] capillaries and evaluation of morphological changes after cerebral ischemia were performed using Hematoxylin and Eosin Staining. Random slides of the rat brains were used for the staining.

Test [10] concerns Spontaneous Hypertensive Rats (SHR) with MCAO. The experiment in a line: 2-week MCAO stroke study, SHR (Example 4). In kind it is in vivo. How it is done:
(§3) Wistar and SHR rats were randomly divided into four treatment groups and one sham group (see Table 7 and 8).
(§4) The morphological changes were evaluated after cerebral ischemia. The brains were dipped in M-1 Embedding Matrix for frozen sectioning, frozen in liquid nitrogen and stored at −80 deg C. The cerebral sections were then cut from the middle part of the frozen brain at 20 um. 4 to 6 sections were obtained from each brain for HE staining. HE staining of sections was performed to differentiate capillaries, after which they were covered with crystal mount. Cerebral sections were examined under the microscope and photographed.

For test [11], the system named is BcL-xL. The experiment in a line: Gene expression Bcl-xL, Wistar (Example 7). The test is classed as in vivo, Wistar rats. The note with it: Losartan 1 mg/kg/day, compared with vehicle group (p<0.01). Here is the method: as §2
(§5) Glyceraldehydes-3-[…] dehydrogenase (GAPDH) was used as the internal standard gene. Primers sequences of GAPDH, VEGF, eNOS, ACE, AT1, AT2, Fas, Bax, Bcl-xL and Bcl-xS were used in this study.

Test [12] has as its system Bcl-xS. The experiment in a line: Gene expression Bcl-xS, SHR (Example 7). In kind it is in vivo. The conditions noted are these: doses of Table 14, vs Vehicle group. How it is done:
as §2, §5

For the next test, the system named is Wistar Rats with MCAO. The experiment in a line: 2-week MCAO stroke study, Wistar (Example 4). The test is classed as in vivo. Here is the method: as §3, §4
[13] abbreviates: MCAO, Formulation B 500 mg/kg/day, Losartan 1 mg/kg/day.
[14] abbreviates: MCAO, Formulation B 500 mg/kg/day, Losartan 1 mg/kg/day, day 13.

Protocol for Inhibition of ABTS Assay: 10 ul of 10 mg/ml of select herbal extracts and two batches of Formulation B were mixed with 990 ul of ABTS reagent and incubated for 2 minutes before the absorbance was measured by UV visible spectrophotometer at 734 nm.

As for `O=C1O[C@H]([C@@H](O)CO)C(O)=C1O` [ascorbic acid], in the test “Inhibition of ABTS Assay”, the “scavenging effect of ABTS” value stood at 100%. Besides, the “pyrogallol red bleaching inhibition” value in test [1] is on record as around 100%.

Regarding `CCOC(=O)[C@H](CCc1ccccc1)N[C@@H](C)C(=O)N1[C@H](C(=O)O)C[C@@H]2CCC[C@@H]21` [Ramipril], in test [2], the “2OH Adenine” value turned out to be 0.03 ± 0.02; the “5(OH, Me) Uracil” value is 0.03 ± 0.00; the “5CI Uracil” value is recorded as 0.01 ± 0.00; the “5Formyl Uracil” value came out at 0.50 ± 0.03. Moreover, in [2], the “5OH Cytosine” value stood at 0.05 ± 0.01; the “5OH Uracil” value stood at 0.06 ± 0.00; the “5OH, Me Hydantoin” value worked out at 0.04 ± 0.02; the “8OH Adenine” value was 0.03 ± 0.01. In [2], the “8OH Guanine” value is on record as 0.13 ± 0.07, the “FAPy Adenine” value was 0.08 ± 0.03, the “FAPy Guanine” value was determined as 0.03 ± 0.01 and the Hypoxanthine was determined as 18.12 ± 11.18. In test [2], the “Thymine Glycol (cis)” value is 0.68 ± 0.31 and the Xanthine amounted to 2.61 ± 1.64. The BcL-xS expression result in the test on BcL-xS [3] is “significantly reduced expression”. The AT2 expression entry in the test on AT2 receptor is recorded as “significantly reduced”. The Fas expression entry in the test with Fas was “no significant effect”. In addition, the Bax gene expression entry in the test with Bax is on record as “significant effect in down regulating”. In the test with BcL-xL [4], the “BcL-xL up or down regulation” value was “did not have any significant effects”.

With `CC(=O)Oc1ccccc1C(=O)O` [Aspirin], in [5], the “apoptosis (TUNEL staining) in cerebral cortex” value was “reduction in apoptosis”. Also, in [6], the “Neurological score, 1 day after stroke” value was determined as 1.72 ± 1.73; the “Neurological score, 1 day before decapitation” value is 1.54 ± 2.15; the “Neurological score, 15 days after stroke” value was determined as 0.63 ± 1.84. For the same molecule, in [7], the “amount of DNA damage compared to Remembrance 500 mg group” value is listed as “higher amount of DNA damage”. Moreover, the “apoptosis (TUNEL staining) in cerebral cortex” value in test [8] is “reduction in apoptosis”. In addition, in test [9], the “Neurological score, 1 day after stroke” value was 1 ± 1.73; the “Neurological score, 1 day before decapitation” value is recorded as 2 ± 2.74; the “Neurological score, 15 days after stroke” value is on record as 2 ± 2.45.

With `CCCCc1nc(Cl)c(CO)n1Cc1ccc(-c2ccccc2-c2nn[nH]n2)cc1` [Losartan], in [2], the “2OH Adenine” value is on record as 0.02 ± 0.03; the “5(OH, Me) Uracil” value is on record as 0.04 ± 0.03; the “5CI Uracil” value is 0.02 ± 0.01; the “5Formyl Uracil” value worked out at 0.01 ± 0.01. In test [2], the “5OH Cytosine” value turned out to be 0.01 ± 0.01; the “5OH Uracil” value was found to be 0.01 ± 0.01; the “5OH, Me Hydantoin” value is 0.10 ± 0.02; the “8OH Adenine” value is given as 0.05 ± 0.04. Besides, in test [2], the “8OH Guanine” value is 0.13 ± 0.04, the “FAPy Adenine” value turned out to be 0.09 ± 0.03, the “FAPy Guanine” value amounted to 0.03 ± 0.03 and the Hypoxanthine was 22.21 ± 8.01. In addition, in [2], the “Thymine Glycol (cis)” value is reported as 2.20 ± 0.15 and the Xanthine was found to be 1.51 ± 0.32. In addition, the BcL-xS expression result in the test with BcL-xS [3] was “significantly reduced expression”. The AT2 expression result in the test with AT2 receptor is reported as “significantly reduced”. Further, the infarct volume in [10] (setting [13]) came out at 5.22%. The mortality rate in test [10] (setting [14]) was 28.6%. Also, the “number of capillaries, HE staining” value in test [10] (after MCAO) was 15 capillaries. Moreover, the Fas expression result in the test on Fas is “no significant effect”. Also, the “amount of DNA damage compared to Remembrance 500 mg group” value in test [7] is “higher amount of DNA damage”. In addition, in the test with BcL-xL [11], the Bcl-xL expression entry is “significant fold decrease”. Further, in the test on Bax, the Bax gene expression entry is “significant effect in down regulating”. Also, the Bcl-xS expression result in the test with Bcl-xS [12] is “up-regulating effects”. For the same molecule, in the test on Wistar Rats with MCAO (setting [13]), the infarct volume was 2.41%. For the same molecule, in the test on Wistar Rats with MCAO (setting [14]), the mortality rate was 0%. Also, in the test on Wistar Rats with MCAO (after MCAO), the “number of capillaries, HE staining” value is 22 capillaries. The “BcL-xL up or down regulation” value in the test with BcL-xL [4] is listed as “did not have any significant effects”.
